Measured values from publication PMC12298827, “Subchronic Toxicities of Four Per- and Polyfluoroalkyl Substances (PFASs) by Oral Exposure in Sprague–Dawley Rats” (Toxics, 2025).

Tested on: male and female Sprague–Dawley rats
Assay: 90-day subchronic oral gavage toxicity study
Assay type: in vivo, rat
Description: Subchronic (90-day) studies were performed in accordance with current U.S. EPA’s Toxic Substances Control Act Good Laboratory Practice (GLP) Standards, with the following two general exceptions to the GLP guidelines: Analysis of the dose formulations was conducted according to RTI-approved Standard Operating Procedures, and corn oil (the vehicle) was not characterized (certificate of analysis from the vendor is available in the appendices to the final reports). Male and female Sprague–Dawley rats (five dose levels plus a control, n = 10/sex/dose group, corn oil vehicle dose volume of 3 mL/kg; oral gavage) were used in these studies, and the rats were euthanized on SD 91. The dose levels for PFHI were 0, 12.5, 25, 50, 100, and 200 mg/kg-day. The dose levels for MHFPK were 0, 18.8, 37.5, 75, 150, and 300 mg/kg-day. The dose levels for PFNAC were 0, 0.1, 0.3, 1.0, 3.0, and 10 mg/kg-day for male rats and 0, 0.3, 1.0, 3.0, 10, and 30 mg/kg-day for female rats. For CTFPA, the dose levels were 0, 1.9, 3.8. 7.5, 15, and 30 mg/kg-day for male rats and 0, 6.3, 12.5, 25, 50, and 100 mg/kg-day for female rats. For each PFAS, three batches of dosing solution were prepared. The time between the batch preparation of the dosing solutions ranged between 29 and 39 days. Blood samples were collected from all the rats at termination for serum chemistry, hematology, coagulation, and the analysis of the parent PFAS chemical in the plasma. In vivo data collection and further detail on the endpoints examined postmortem are described below.
The rats were observed twice daily for morbidity and mortality throughout the study period. At least once prior to randomization to test groups and weekly thereafter, the rats were physically examined, and bodyweights were obtained. Feed consumption was quantified weekly starting on SD 1.
Neurotoxicity was evaluated using the functional observational battery (FOB) and measuring locomotor activity (LMA) 2–4 h post dosing on SDs 78–80 and 80–84, respectively. For both the 14- and 90-day studies, an ophthalmologic examination was conducted prior to randomization and near the end of the study, using indirect ophthalmoscopy and slit–lamp biomicroscopy (as needed) after the administration of a mydriatic solution.
Hematology, biochemistry, and coagulation endpoints were measured at the termination of the study. A Siemens Advia 2120i hematology analyzer (Siemens Healthineers, Erlangen, Germany) was used to measure (or calculate) the parameters related to the complete blood count, leukocyte differential count, and reticulocyte count. The hematology parameters are listed and described in Table 2. The prothrombin time […] and activated partial thromboplastin time (APTT) were measured using an Instrumentation Laboratory (Bedford, MA, USA) ACL Elite Pro coagulation analyzer (laser–nephelometric centrifugal method).
At necropsy, the rats were visually examined for external abnormalities and organ weights (absolute and relative to the BW and brain weight), which were recorded (paired organs weighed together). The tissues were preserved in 10% neutral buffered formalin (NBF), except for the ocular tissues, testes, and epididymides, which were preserved in modified Davidson’s fixative and later transferred to 10% NBF. Bone marrow smears were prepared from the femurs, and the slides were air-dried, fixed in methanol, stained, and stored at room temperature for possible future evaluation. The preserved tissues were embedded in paraffin, sectioned, stained with hematoxylin and eosin, and examined by a board-certified veterinary pathologist.
Statistical analysis was performed using Provantis™ Version 10 or greater (Instem LSS, Limited; Stone, Staffordshire, UK). Differences among the treatment groups compared to the control were evaluated using one-way analysis of variance (ANOVA) if the underlying assumptions of a normal distribution (Shapiro–Wilk test) and the homogeneity of the variance (Levene’s test) were satisfied. […]

FC(F)(F)C(F)(F)C(F)(F)C(F)(F)CCI [PFHI, 1H,1H,2H,2H-Perfluorohexyl iodide]
Liver/Brain Weight (female, 200 mg/kg-day): 481%
MPV (female, 200 mg/kg-day): 7.68 ± 0.44 fL
PT (female, 200 mg/kg-day): 13.98 s
Total BW change (female, 200 mg/kg-day): 108.57 g
Total Food Consumed (female, 200 mg/kg-day): 1566 g
BMD10, absolute kidney weight increase (male): 122 mg/kg-day
BMD10, relative kidney weight increase (male): 69.7 mg/kg-day
BMDL, absolute kidney weight increase (male): 83.8 mg/kg-day
BMDL, relative kidney weight increase (male): 56.6 mg/kg-day
LOEL, absolute kidney weight increase (male): 200 mg/kg-day
LOEL, absolute liver weight increase (male): 100 mg/kg-day
LOEL, relative kidney weight increase (male): 100 mg/kg-day
LOEL, relative liver weight increase (male): 25 mg/kg-day
NOEL, absolute kidney weight increase (male): 100 mg/kg-day
NOEL, absolute liver weight increase (male): 50 mg/kg-day
NOEL, relative kidney weight increase (male): 50 mg/kg-day
NOEL, relative liver weight increase (male): 12.5 mg/kg-day
% BW Gain (male, 12.5 mg/kg-day): 114.45%
% Diff, % BW Gain (male, 12.5 mg/kg-day): 0.87%
% Diff, Total BW change (male, 12.5 mg/kg-day): -1.78%
% Diff, Total Food Consumed (male, 12.5 mg/kg-day): -6.69%
A/G (male, 12.5 mg/kg-day): 0.91±0.04 ratio
ALB (male, 12.5 mg/kg-day): 3.42 ± 0.25 g/dL
ALPi (male, 12.5 mg/kg-day): 102.9±14.1 U/L
APTT (male, 12.5 mg/kg-day): 23.37 s
BUN (male, 12.5 mg/kg-day): 14.8 ± 2.0 mg/dL
CHOL (male, 12.5 mg/kg-day): 87.5 ± 9.2 mg/dL
GLOB (male, 12.5 mg/kg-day): 3.77 ± 0.18 g/dL
GLUC (male, 12.5 mg/kg-day): 199.1 ± 29.5 mg/dL
HCT (male, 12.5 mg/kg-day): 51.12±1.63%
HGB (male, 12.5 mg/kg-day): 15.92 ± 0.40 g/dL
Kidney Weight (male, 12.5 mg/kg-day): 3.04 g
Kidney/Body Weight (male, 12.5 mg/kg-day): 0.51%
Kidney/Brain Weight (male, 12.5 mg/kg-day): 140%
Liver Weight (male, 12.5 mg/kg-day): 15.35 g
Liver/Body Weight (male, 12.5 mg/kg-day): 2.59%
Liver/Brain Weight (male, 12.5 mg/kg-day): 706%
MPV (male, 12.5 mg/kg-day): 7.20 ± 0.26 fL
PT (male, 12.5 mg/kg-day): 14.91 s
Total BW change (male, 12.5 mg/kg-day): 319.83 g
Total Food Consumed (male, 12.5 mg/kg-day): 2217 g
% BW Gain (male, 25 mg/kg-day): 112.88%
% Diff, % BW Gain (male, 25 mg/kg-day): -0.52%
% Diff, Total BW change (male, 25 mg/kg-day): -1.33%
% Diff, Total Food Consumed (male, 25 mg/kg-day): -4.60%
A/G (male, 25 mg/kg-day): 0.88±0.10 ratio
ALB (male, 25 mg/kg-day): 3.35 ± 0.14 g/dL
ALPi (male, 25 mg/kg-day): 112.3±29.5 U/L
APTT (male, 25 mg/kg-day): 29.06 s
BUN (male, 25 mg/kg-day): 15.3 ± 2.1 mg/dL
CHOL (male, 25 mg/kg-day): 101.5 ± 15.8 mg/dL
GLOB (male, 25 mg/kg-day): 3.84 ± 0.36 g/dL
GLUC (male, 25 mg/kg-day): 204.5 ± 34.6 mg/dL
HCT (male, 25 mg/kg-day): 50.59±1.92%
HGB (male, 25 mg/kg-day): 15.67 ± 0.55 g/dL
Kidney Weight (male, 25 mg/kg-day): 3.20 g
Kidney/Body Weight (male, 25 mg/kg-day): 0.54%
Kidney/Brain Weight (male, 25 mg/kg-day): 147%
Liver Weight (male, 25 mg/kg-day): 16.98 g
Liver/Body Weight (male, 25 mg/kg-day): 2.85%
Liver/Brain Weight (male, 25 mg/kg-day): 780%
MPV (male, 25 mg/kg-day): 7.13 ± 0.21 fL
PT (male, 25 mg/kg-day): 14.69 s
Total BW change (male, 25 mg/kg-day): 321.29 g
Total Food Consumed (male, 25 mg/kg-day): 2266 g
% BW Gain (male, 50 mg/kg-day): 108.23%
% Diff, % BW Gain (male, 50 mg/kg-day): -4.61%
% Diff, Total BW change (male, 50 mg/kg-day): -5.67%
% Diff, Total Food Consumed (male, 50 mg/kg-day): -6.15%
A/G (male, 50 mg/kg-day): 0.91±0.04 ratio
ALB (male, 50 mg/kg-day): 3.41 ± 0.12 g/dL
ALPi (male, 50 mg/kg-day): 103.3±31.6 U/L
APTT (male, 50 mg/kg-day): 20.03 s
BUN (male, 50 mg/kg-day): 15.4 ± 1.8 mg/dL
CHOL (male, 50 mg/kg-day): 100.2 ± 18.8 mg/dL
GLOB (male, 50 mg/kg-day): 3.74 ± 0.13 g/dL
GLUC (male, 50 mg/kg-day): 196.8 ± 40.7 mg/dL
HCT (male, 50 mg/kg-day): 49.78±1.69%
HGB (male, 50 mg/kg-day): 15.53 ± 0.59 g/dL
Kidney Weight (male, 50 mg/kg-day): 3.25 g
Kidney/Body Weight (male, 50 mg/kg-day): 0.56%
Kidney/Brain Weight (male, 50 mg/kg-day): 143.1%
Liver Weight (male, 50 mg/kg-day): 17.05 g
Liver/Body Weight (male, 50 mg/kg-day): 2.92%
Liver/Brain Weight (male, 50 mg/kg-day): 754%
MPV (male, 50 mg/kg-day): 7.30 ± 0.36 fL
PT (male, 50 mg/kg-day): 15.14 s
Total BW change (male, 50 mg/kg-day): 307.16 g
Total Food Consumed (male, 50 mg/kg-day): 2229 g
% BW Gain (male, 100 mg/kg-day): 106.43%
% Diff, % BW Gain (male, 100 mg/kg-day): -6.20%
% Diff, Total BW change (male, 100 mg/kg-day): -9.44%
% Diff, Total Food Consumed (male, 100 mg/kg-day): -5.67%
A/G (male, 100 mg/kg-day): 0.87±0.20 ratio
ALB (male, 100 mg/kg-day): 3.34 ± 0.53 g/dL
ALPi (male, 100 mg/kg-day): 103.2±19.1 U/L
APTT (male, 100 mg/kg-day): 26.73 s
BUN (male, 100 mg/kg-day): 15.7 ± 3.2 mg/dL
CHOL (male, 100 mg/kg-day): 112.4 ± 25.0 mg/dL
GLOB (male, 100 mg/kg-day): 3.97 ± 0.63 g/dL
GLUC (male, 100 mg/kg-day): 171.8 ± 39.0 mg/dL
HCT (male, 100 mg/kg-day): 50.60±2.40%
HGB (male, 100 mg/kg-day): 15.71 ± 0.74 g/dL
Kidney Weight (male, 100 mg/kg-day): 3.38 g
Kidney/Body Weight (male, 100 mg/kg-day): 0.60%
Kidney/Brain Weight (male, 100 mg/kg-day): 156%
Liver Weight (male, 100 mg/kg-day): 18.32 g
Liver/Body Weight (male, 100 mg/kg-day): 3.24%
Liver/Brain Weight (male, 100 mg/kg-day): 843%
MPV (male, 100 mg/kg-day): 7.22 ± 0.38 fL
PT (male, 100 mg/kg-day): 15.16 s
Total BW change (male, 100 mg/kg-day): 294.89 g
Total Food Consumed (male, 100 mg/kg-day): 2241 g
% BW Gain (male, 200 mg/kg-day): 100.73%
% Diff, % BW Gain (male, 200 mg/kg-day): -11.23%
% Diff, Total BW change (male, 200 mg/kg-day): -14.29%
% Diff, Total Food Consumed (male, 200 mg/kg-day): -8.27%
A/G (male, 200 mg/kg-day): 0.91±0.04 ratio
ALB (male, 200 mg/kg-day): 3.55 ± 0.21 g/dL
ALPi (male, 200 mg/kg-day): 117.5±29.4 U/L
APTT (male, 200 mg/kg-day): 25.80 s
BUN (male, 200 mg/kg-day): 16.5 ± 2.0 mg/dL
CHOL (male, 200 mg/kg-day): 149.1 ± 27.7 mg/dL
GLOB (male, 200 mg/kg-day): 3.92 ± 0.23 g/dL
GLUC (male, 200 mg/kg-day): 163.2 ± 18.4 mg/dL
HCT (male, 200 mg/kg-day): 47.32±1.57%
HGB (male, 200 mg/kg-day): 14.88 ± 0.44 g/dL
Kidney Weight (male, 200 mg/kg-day): 3.60 g
Kidney/Body Weight (male, 200 mg/kg-day): 0.66%
Kidney/Brain Weight (male, 200 mg/kg-day): 168%
Liver Weight (male, 200 mg/kg-day): 20.17 g
Liver/Body Weight (male, 200 mg/kg-day): 3.70%
Liver/Brain Weight (male, 200 mg/kg-day): 944%
MPV (male, 200 mg/kg-day): 7.33 ± 0.31 fL
PT (male, 200 mg/kg-day): 15.32 s
Total BW change (male, 200 mg/kg-day): 279.08 g
Total Food Consumed (male, 200 mg/kg-day): 2179 g
